From patent publication US10258602B2 (Ocera Therapeutics, Inc., priority 2007, dated 2019)
pIC50, pKi: −log10 of the molar value. Where two headings read alike, the source gives them in different places.

What was measured:
[1] = target: T1, CYP2D6 (Homo sapiens, UniProt P10635); assay: Cytochrome P450 inhibition, CYP2D6; format: in vitro ADME; settings: read-out: IC50 2D6
T1 construct: purchased BD Gentest, Becton-Dickinson (Supersomes); host or cells: insect cells
Description: (§1) K. Assay for Cytochrome P450 Inhibition
(§2) Cytochrome P450 enzymes are implicated in the phase I metabolism of drugs. The majority of drug-drug interactions are metabolism-based and, moreover, these interactions typically involve inhibition of cytochrome P450s. Six CYP450 enzymes (CYP1A2, CYP2C8, CYP2C9, CYP2C19, CYP2D6 and CYP3A4) appear to be commonly responsible for the metabolism of most drugs and the associated drug-drug interactions. Assays to determine the binding of compounds of the invention to the various metabolically important isoforms of cytochrome P450 metabolizing enzymes are commercially available, for example NoAb BioDiscoveries (Mississaugua, ON, Canada) and Absorption Systems (Exton, Pa., USA). As well, a number of appropriate methods have been described or reviewed in the literature. (White, R. E. Ann. Rev. Pharmacol. Toxicol. 2000, 40, 133-157; Li, A. P. Drug. Disc. Today 2001, 6, 357-366; Turpeinen, M.; Korhonen, L. E. Tolonen, A.; et al. Eur. J. Pharm. Sci, 2006, 29, 130-138.)
(§3) The key aspects of the experimental method were as follows: • 1. […] Assays monitored, via fluorescence detection, the formation of a fluorescent metabolite following incubation of the microsomes with a specific CYP substrate. • 3. Compounds of the present invention were tested in duplicate samples at eight test concentrations using 3-fold serial dilutions (concentration range of 0.0457 to 100 μM). • 4. For each CYP-450 enzyme, a specific inhibitor was tested in duplicate at eight concentrations as a positive control. • 5. The concentration of the inhibitor or test compound that inhibited metabolite formation by 50% (IC50) was calculated by non-linear regression analysis of the % inhibition vs. log concentration (M) curve.

[2] = target: T2, CYP2C8 (Homo sapiens, UniProt P10632); assay: Cytochrome P450 inhibition, CYP2C8; format: in vitro ADME; settings: read-out: IC50 2C8
T2 construct: purchased BD Gentest, Becton-Dickinson (Supersomes); host or cells: insect cells
T2 sequence (P10632 1-490): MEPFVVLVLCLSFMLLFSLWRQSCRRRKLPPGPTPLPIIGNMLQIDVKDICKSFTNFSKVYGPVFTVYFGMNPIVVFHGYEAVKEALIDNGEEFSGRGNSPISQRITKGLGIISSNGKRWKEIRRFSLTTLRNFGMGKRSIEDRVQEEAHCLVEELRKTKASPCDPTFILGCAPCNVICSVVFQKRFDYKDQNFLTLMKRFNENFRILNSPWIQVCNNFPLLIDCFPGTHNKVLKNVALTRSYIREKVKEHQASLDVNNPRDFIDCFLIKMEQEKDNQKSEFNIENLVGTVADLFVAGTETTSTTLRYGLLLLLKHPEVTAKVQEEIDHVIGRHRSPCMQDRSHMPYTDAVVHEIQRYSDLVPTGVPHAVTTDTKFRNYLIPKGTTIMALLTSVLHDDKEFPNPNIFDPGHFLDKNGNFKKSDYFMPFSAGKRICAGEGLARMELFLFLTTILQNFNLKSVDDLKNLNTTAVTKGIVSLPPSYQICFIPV
Description: as §1, §2, §3

[3] = system: rat plasma; assay: Plasma protein binding, rat plasma; format: in vitro ADME
[4] = target: T3, CYP3A4 (Homo sapiens, UniProt P08684); assay: Cytochrome P450 inhibition, CYP3A4 (two substrates); format: in vitro ADME
T3 construct: purchased BD Gentest, Becton-Dickinson (Supersomes); host or cells: insect cells
T3 sequence (P08684 whole entry): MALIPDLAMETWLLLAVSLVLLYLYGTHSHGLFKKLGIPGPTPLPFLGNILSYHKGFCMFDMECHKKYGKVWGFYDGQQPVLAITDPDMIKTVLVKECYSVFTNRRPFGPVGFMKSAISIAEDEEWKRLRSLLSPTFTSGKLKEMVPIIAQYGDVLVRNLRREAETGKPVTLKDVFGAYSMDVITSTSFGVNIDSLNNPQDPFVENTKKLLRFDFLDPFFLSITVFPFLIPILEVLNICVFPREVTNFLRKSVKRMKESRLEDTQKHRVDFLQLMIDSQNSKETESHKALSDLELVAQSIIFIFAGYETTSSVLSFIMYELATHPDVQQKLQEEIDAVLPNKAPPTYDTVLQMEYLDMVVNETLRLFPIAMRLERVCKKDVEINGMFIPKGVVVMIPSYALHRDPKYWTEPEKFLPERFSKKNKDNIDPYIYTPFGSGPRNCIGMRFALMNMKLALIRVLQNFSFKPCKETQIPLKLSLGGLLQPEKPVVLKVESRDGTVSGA
Description: as §1, §2, §3

[5] = target: T4, CYP2C9 (Homo sapiens, UniProt P11712); assay: Cytochrome P450 inhibition, CYP2C9; format: in vitro ADME; settings: read-out: IC50 2C9
T4 construct: purchased BD Gentest, Becton-Dickinson (Supersomes); host or cells: insect cells
T4 sequence (P11712 whole entry): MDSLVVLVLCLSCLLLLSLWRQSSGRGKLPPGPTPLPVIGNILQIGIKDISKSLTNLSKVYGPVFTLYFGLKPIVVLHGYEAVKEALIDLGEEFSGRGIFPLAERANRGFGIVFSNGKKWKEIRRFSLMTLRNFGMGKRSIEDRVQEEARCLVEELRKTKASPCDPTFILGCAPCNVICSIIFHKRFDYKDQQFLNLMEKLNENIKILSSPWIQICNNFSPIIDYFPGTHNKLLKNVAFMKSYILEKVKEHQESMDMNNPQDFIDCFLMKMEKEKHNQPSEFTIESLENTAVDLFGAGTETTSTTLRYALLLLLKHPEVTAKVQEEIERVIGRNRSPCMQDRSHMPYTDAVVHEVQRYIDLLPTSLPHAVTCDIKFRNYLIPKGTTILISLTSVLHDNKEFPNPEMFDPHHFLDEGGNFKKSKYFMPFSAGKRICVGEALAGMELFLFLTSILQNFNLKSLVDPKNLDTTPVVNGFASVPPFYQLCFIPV
Description: as §1, §2, §3

[6] = target: T5, CYP1A2 (Homo sapiens, UniProt P05177); assay: Cytochrome P450 inhibition, CYP1A2; format: in vitro ADME; settings: read-out: IC50 1A2
T5 construct: purchased BD Gentest, Becton-Dickinson (Supersomes); host or cells: insect cells
T5 sequence (P05177 1-516): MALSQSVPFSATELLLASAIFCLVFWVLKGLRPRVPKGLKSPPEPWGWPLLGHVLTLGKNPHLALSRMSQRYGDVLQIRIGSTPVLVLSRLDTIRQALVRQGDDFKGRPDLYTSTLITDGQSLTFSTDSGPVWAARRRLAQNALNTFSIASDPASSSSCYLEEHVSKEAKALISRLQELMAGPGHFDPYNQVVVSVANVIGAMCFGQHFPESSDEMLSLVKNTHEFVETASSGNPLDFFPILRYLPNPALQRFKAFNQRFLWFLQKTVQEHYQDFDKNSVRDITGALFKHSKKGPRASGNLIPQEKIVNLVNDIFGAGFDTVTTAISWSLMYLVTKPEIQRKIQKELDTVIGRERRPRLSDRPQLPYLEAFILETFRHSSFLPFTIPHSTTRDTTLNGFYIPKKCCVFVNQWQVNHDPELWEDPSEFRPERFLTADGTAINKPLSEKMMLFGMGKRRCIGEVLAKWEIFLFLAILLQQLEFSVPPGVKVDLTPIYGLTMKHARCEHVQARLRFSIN
Description: as §1, §2, §3

[7] = target: human growth hormone secretagogue receptor (hGHS-R1a) (Homo sapiens, UniProt Q92847); assay: Competitive radioligand binding assay (ghrelin receptor), standard method A
Chain of human growth hormone secretagogue receptor (hGHS-R1a) (Q92847 whole entry): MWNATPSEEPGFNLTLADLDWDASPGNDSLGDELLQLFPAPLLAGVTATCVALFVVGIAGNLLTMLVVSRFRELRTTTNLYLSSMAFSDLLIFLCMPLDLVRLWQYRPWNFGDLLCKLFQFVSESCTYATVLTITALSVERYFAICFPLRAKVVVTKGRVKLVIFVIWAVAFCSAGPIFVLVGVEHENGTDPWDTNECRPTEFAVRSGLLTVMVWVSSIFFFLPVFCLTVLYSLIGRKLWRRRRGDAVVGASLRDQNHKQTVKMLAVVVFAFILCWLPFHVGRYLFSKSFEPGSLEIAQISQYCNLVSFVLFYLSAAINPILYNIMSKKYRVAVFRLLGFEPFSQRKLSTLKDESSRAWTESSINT

[8] = CYP3A4, substrate BQ, read-out: IC50 3A4 (BQ)
[9] = binding activity at the human ghrelin receptor, standard method A
[10] = CYP3A4, substrate BFC, read-out: IC50 3A4 (BFC)

T1 sequence (P10635 whole entry): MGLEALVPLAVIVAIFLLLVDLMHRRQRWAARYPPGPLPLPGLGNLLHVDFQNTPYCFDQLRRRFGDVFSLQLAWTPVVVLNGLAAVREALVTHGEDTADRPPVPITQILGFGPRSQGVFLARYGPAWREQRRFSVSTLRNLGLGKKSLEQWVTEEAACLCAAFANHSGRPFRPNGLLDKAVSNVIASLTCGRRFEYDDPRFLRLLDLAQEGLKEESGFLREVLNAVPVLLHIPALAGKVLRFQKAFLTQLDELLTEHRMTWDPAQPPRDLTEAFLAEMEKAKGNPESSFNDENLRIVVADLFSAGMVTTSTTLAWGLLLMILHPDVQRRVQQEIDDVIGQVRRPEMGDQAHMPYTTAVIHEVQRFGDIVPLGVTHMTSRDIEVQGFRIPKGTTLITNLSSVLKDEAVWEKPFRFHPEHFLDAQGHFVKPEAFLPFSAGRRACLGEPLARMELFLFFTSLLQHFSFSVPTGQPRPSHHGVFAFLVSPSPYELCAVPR

| pIC50 [1] | pIC50 [2] | pIC50 [4, 8] | pIC50 [5] | pIC50 [6] | pIC50 [4, 10] | pKi [7] | Rat Plasma Protein Binding (%) ([3]; test concentration 5 μg/mL) | Compound | Rat Plasma Protein Binding (%) ([3]; test concentration 1 μg/mL) | pKi [7, 9] | Rat Plasma Protein Binding (%) ([3]; test concentration 3 μg/mL) |
| --- | --- | --- | --- | --- | --- | --- | --- | --- | --- | --- | --- |
| < 4.00 | < 4.00 | 5.21 | < 4.00 | < 4.00 | 4.63 | ≥ 8.00 | – | CC(C)C[C@H]1NC(=O)[C@@H](C)N(C)C(=O)[C@H](C2CC2)NC[C@@H](C)Oc2ccccc2CC[C@H](C)NC1=O [Compound 807] | – | – | – |
| < 4.00 | < 4.00 | 5.38 | < 4.00 | < 4.00 | 4.85 | – | – | CC(C)C[C@H]1NC(=O)[C@@H](C)N(C)C(=O)[C@H](C2CC2)NCCOc2cc(F)ccc2CC[C@H](C)NC1=O [Compound 822] | – | ≥ 7.00 | 99.1% |
| < 4.00 | < 4.00 | 5.97 | < 4.00 | 4.16 | 5.13 | – | – | CC(C)C[C@H]1NC(=O)[C@@H](C)N(C)C(=O)[C@H](C2CC2)NCCOc2cc(F)ccc2CCCNC1=O [Compound 810] | – | ≥ 7.00 | – |

Second part, the compound before the results:

| Compound | pIC50 [1] | pIC50 [2] | pIC50 [4, 8] | pIC50 [5] | pIC50 [6] | pIC50 [4, 10] | pKi [7] | Rat Plasma Protein Binding (%) ([3]; test concentration 5 μg/mL) | Rat Plasma Protein Binding (%) ([3]; test concentration 1 μg/mL) | pKi [7, 9] | Rat Plasma Protein Binding (%) ([3]; test concentration 3 μg/mL) |
| --- | --- | --- | --- | --- | --- | --- | --- | --- | --- | --- | --- |
| C[C@@H]1C(=O)N[C@H](Cc2ccc(O)cc2)C(=O)NCCCc2cccc3c2O[C@H](CC3)CN[C@@H](C2CC2)C(=O)N1C [Compound 803] | < 4.00 | 4.26 | 4.94 | < 4.00 | < 4.00 | – | – | – | 99.1% | ≥ 7.00 | – |
| CC1NC(C2CC2)C(=O)N(C)C(C)C(=O)NC(Cc2ccc(O)cc2)C(=O)NCCCc2ccccc2OC1C (stereo not drawn) [Compound 820] | < 4.00 | < 4.00 | 4.86 | < 4.00 | < 4.00 | 4.32 | – | – | – | ≥ 7.00 | 98.8% |
| CC1CNC(C2CC2)C(=O)N(C)C(C)C(=O)NC(Cc2ccc(O)cc2)C(=O)NCCCC2CCCCC2O1 (mixture of isomers) [Compound 826] | < 4.00 | < 4.00 | 5.35 | < 4.00 | < 4.00 | 4.32 | – | – | – | ≥ 7.00 | 97.2% |
| C[C@@H]1C(=O)N[C@H](Cc2ccc(O)cc2)C(=O)NCCCc2ccc(F)cc2OCCN[C@@H](C2CC2)C(=O)N1C [Compound 809] | < 4.00 | < 4.00 | 5.82 | < 4.00 | < 4.00 | 5.18 | – | – | – | ≥ 7.00 | 92.8% |
| CC(C)CC1NC(=O)C(C)N(C)C(=O)C(C2CCCCC2)NCC(C)OC2CCCCC2CCCNC1=O (mixture of isomers) [Compound 828] | < 4.00 | < 4.00 | 5.05 | < 4.00 | < 4.00 | 4.73 | – | – | – | ≥ 9.00 | – |
| CC(C)CC1NC(=O)C(C)N(C)C(=O)C(C2CC2)NCC(C)OC2CCCCC2CCCNC1=O (mixture of isomers) [Compound 825] | < 4.00 | < 4.00 | 5.17 | < 4.00 | < 4.00 | 4.03 | – | 73% | 96.6% | ≥ 8.00 | – |
